Test system: TEAD-YAP/TAZ interaction
Experiment: CTGF ELISA assay
Type: cell-based, human
Details: CTGF in culture supernatant of NCI-H2052 cells, 24 hours with compound
Protocol: The detection of CTGF expression level can assessed the binding activity of TEAD-YAP/TAZ transcription factor, and the CTGF expression level was quantified by SimpleStep ELISA® kit (Abcam, ab261851).
NCI-H2052 cells (Purchased from ATCC) were cultured in RPMI 1640 medium, adding 10% FBS and 1% Penicillin-Streptomycin Solution and 1 mM Sodium pyruvate. The day before compounds treatment, the cultured cells were washed with PBS and digested with trypsin, then centrifuged and collected. Discarded the supernatant, the cells were resuspended in fresh complete medium. After cells counted, cells were seeded at 6500 cells/well in 96-well plates. And then cells were cultured overnight in incubator (37° C., 5% CO2).
After the cells were cultured overnight, discarded the culture supernatant, then washed with PBS solution, cells were incubated with 200 μl medium containing compounds in each well. The starting concentration was 10 μM and serial dilution in DMSO and medium were performed to achieve a final DMSO concentration of 0.5% (Final compounds concentration were 10000, 2500, 625, 156, 39.1, 9.77, 2.44, 0.61 nM, 0 nM (0.5% DMSO), The cells were then cultured in incubator (37° C., 5% CO2). Cultured for 24 hours, the cells were centrifuged at 1500 RPM at 4° C. for 5 minutes, and then 50 μl of culture supernatant were tested for CTGF ELISA assay.
The Human CTGF SimpleStep ELISA® Kit (Abcam, ab261851) employs an affinity tag labeled capture antibody and a reporter conjugated detector antibody which immunocapture the sample analyte in solution. This entire complex (capture antibody/analyte/detector antibody) is in turn immobilized via immunoaffinity of an anti-tag antibody coating the well. To perform the assay, samples or standards are added to the wells, followed by the antibody mix (capture antibody/detector antibody). After incubation, the wells are washed to remove unbound material. TMB Development Solution is added and during incubation is catalyzed by HRP, generating blue coloration. This reaction is then stopped by addition of Stop Solution completing any color change from blue to yellow. Signal is generated proportionally to the amount of bound analyte and the intensity is measured at 450 nm. Firstly, prepare all reagents, samples, and standards as instructed. Add 50 μl standard or sample to appropriate wells. Then add 50 μl of the Antibody Cocktail to each well. Seal the plate and incubate for 1 hour at room temperature on a plate shaker. Wash each well with Wash Buffer three times. Add 100 μl of TMB Development Solution to each well and incubate for 10 minutes in the dark on a plate shaker. Add 100 μl of Stop Solution to each well. Shake plate on a plate shaker for 1 minute to mix. Record the OD at 450 nm. Determine the concentration of the target protein in the sample by the standard curve.
EC50 value was determined by fitting the concentration response curves using GraphPad Prism software. The compounds of the present invention were tested for their capacity to inhibit TEAD-YAP/TAZ interaction according to the fitted curves of CTGF concentration response to compounds.

SMILES	EC50 [nM]
C#CC(=O)N1CCC(n2nc(-c3ccc(C(F)(F)F)cc3)c3ccccc32)C1 (stereo not shown) [Compound 57, 1-(3-(3-(4-(trifluoromethyl)phen-yl)-1H-indazol-1-yl)pyrrolidin-1-yl)prop-2-yn-1-one]	82
C=C(F)C(=O)N1CC(n2nc(-c3ccc(C(F)(F)F)cc3)c3ccc(Cl)nc32)C1 [Compound 187, 1-(3-(6-chloro-3-(4-(trifluoro-methyl)phenyl)-1H-pyrazolo[3,4-b]pyridin-1-yl)azetidin-1-yl)-2-fluoroprop-2-en-1-one]	2
C=CC(=O)N1CCC(n2nc(-c3ccc(C(F)(F)F)cc3)c3cccc(C(F)(F)F)c32)C1 (stereo not shown) [Compound 46, 1-(3-(7-(trifluoromethyl)-3-(4-(trifluoromethyl)phenyl)-1H-indazol-1-yl)pyrrolidin-1-yl)-prop-2-en-1-one]	12
C=C(F)C(=O)N1CC(n2nc(-c3ccc(C(F)(F)F)cc3)c3nccnc32)C1 [Compound 160, 2-fluoro-1-(3-(3-(4-(trifluoro-methyl)phenyl)-1H-pyrazolo[3,4-b]pyrazin-1-yl)azetidin-1-yl)prop-2-en-1-one]	9
C=CC(=O)N1CC(n2c(=O)n(-c3ccc(C(F)(F)F)cc3)c3ccccc32)C1 [Compound 236, 1-(1-acryloylazetidin-3-yl)-3-(4-(trifluoromethyl)phenyl)-1,3-dihydro-2H-benzo[d]imidazol-2-one]	3
C=C(F)C(=O)N1CC(n2nc(-c3ccc(C(F)(F)F)cc3)c3nc(C)n(C)c(=O)c32)C1 [Compound 225, 1-(1-(2-fluoroacryloyl)azetidin-3-yl)-5,6-dimethyl-3-(4-(trifluoro-methyl)phenyl)-1,6-dihydro-7H-pyrazolo[4,3-d]pyrimidin-7-one]	3.6
C=CC(=O)N1CC(n2c(=N)n(-c3ccc(C(F)(F)F)cc3)c3ccccc32)C1 [Compound 231, 1-(3-(2-imino-3-(4-(trifluoromethyl)phenyl)-2,3-dihydro-1H-benzo[d]imidazol-1 yl)azetidin-1 yl)prop-2-en-1-one]	360
C=CC(=O)N1CC(n2nc(-c3ccc(C(F)(F)F)cc3)c3ncccc32)C1 [Compound 82, 1-(3-(3-(4-(trifluoromethyl)phen-yl)-1H-pyrazolo[4,3-b]pyridin-1-yl)azetidin-1-yl)prop-2-en-1-one]	5
C=C(F)C(=O)N1CC(n2nc(-c3ccc(C(F)(F)F)cc3)c3ccccc32)C1 [Compound 196, 2-fluoro-1-(3-(3-(4-(trifluoro-methyl)phenyl)-1H-indazol-1-yl)azetidin-1-yl)prop-2-en-1-one]	9
C=CC(=O)N1CCC(n2nc(-c3ccc(C(F)(F)F)cc3)c3cc(OC)cnc32)C1 (stereo not shown) [Compound 94, 1-(3-(5-methoxy-3-(4-(trifluoro-methyl)phenyl)-1H-pyrazolo[3,4-b]pyridin-1-yl)pyrrolidin-1-yl)-prop-2-en-1-one]	12
C=C(F)C(=O)N1CC(n2nc(-c3ccc(C(F)(F)F)nc3)c3ccccc32)C1 [Compound 197, 2-fluoro-1-(3-(3-(6-(trifluoro-methyl)pyridin-3-yl)-1H-indazol-1-yl)azetidin-1-yl)prop-2-en-1-one]	12.6
C=C(C)C(=O)N1CC(n2nc(-c3ccc(C(F)(F)F)cc3)c3ncccc32)C1 [Compound 87, 2-methyl-1-(3-(3-(4-(trifluoro-methyl)phenyl)-1H-pyrazolo[4,3-b]pyridin-1-yl)azetidin-1-yl)prop-2-en-1-one]	7
C=CC(=O)N1CCN(C(=O)c2nn(-c3ccc(C(F)(F)F)cc3)c3ccccc23)CC1 [Compound 43, 1-(4-(1-(4-(trifluoromethyl)phen-yl)-1H-indazole-3-carbonyl)-piperazin-1-yl)prop-2-en-1-one]	11
C=CC(=O)N1CC(n2nc(-c3ccc(C(F)(F)F)cc3)c3ccc(N(C)C)nc32)C1 [Compound 121, 1-(3-(6-(dimethylamino)-3-(4-(trifluoromethyl)phenyl)-1H-pyrazolo[3,4-b]pyridin-1-yl)-azetidin-1-yl)prop-2-en-1-one]	3
C=CC(=O)N1CC(n2nc(-c3ccc(C(F)(F)F)cc3)c3ncn(C)c(=O)c32)C1 [Compound 79, 1-(1-acryloylazetidin-3-yl)-6-methyl-3-(4-(trifluoromethyl)-phenyl)-1,6-dihydro-7H-pyrazolo[4,3-d]pyrimidin-7-one]	7.2
C=CC(=O)N1CC(n2nc(-c3ccc(C(F)(F)F)cc3)c3nccnc32)C1 [Compound 161, 1-(3-(3-(4-(trifluoromethyl)phen-yl)-1H-pyrazolo[3,4-b]pyrazin-1-yl)azetidin-1-yl)prop-2-en-1-one]	3
C=CC(=O)NC1CCC(n2nc(-c3ccc(C(F)(F)F)cc3)c3ccccc32)C1 (stereo not shown) [Compound 37, N-(3-(3-(4-(trifluoromethyl)phen-yl)-1H-indazol-1-yl)cyclopentyl)-acrylamide]	42
C=CC(=O)N1CCC(n2nc(-c3ccc(C(F)(F)F)cc3)c3ccc(OC)cc32)C1 (stereo not shown) [Compound 54, 1-(3-(6-methoxy-3-(4-(trifluoro-methyl)phenyl)-1H-indazol-1-yl)-pyrrolidin-1-yl)prop-2-en-1-one]	32
C=CC(=O)N1CC(n2nc(-c3ccc(C(F)(F)F)nc3)c3cccnc32)C1 [Compound 123, 1-(3-(3-(6-(trifluoromethyl)pyr-idin-3-yl)-1H-pyrazolo[3,4-b]-pyridin-1-yl)azetidin-1-yl)prop-2-en-1-one]	7
C=CC(=O)N1CCC(Cn2nc(-c3ccc(C(F)(F)F)cc3)c3ccccc32)C1 (stereo not shown) [Compound 34, 1-(3-((3-(4-(trifluoromethyl)phen-yl)-1H-indazol-1-yl)methyl)-pyrrolidin-1-yl)prop-2-en-1-one]	137
C=C(F)C(=O)N1CC(n2nc(-c3ccc(C(F)(F)F)nc3)c3ccc(C)nc32)C1 [Compound 199, 2-fluoro-1-(3-(6-methyl-3-(6-(trifluoromethyl)pyridin-3-yl)-1H-pyrazolo[3,4-b]pyridin-1-yl)-azetidin-1-yl)prop-2-en-1-one]	20
C=CC(=O)N1CCC(n2nc(-c3ccc(C(F)(F)F)cc3)c3cccc(OC)c32)C1 (stereo not shown) [Compound 44, 1-(3-(7-methoxy-3-(4-(trifluoro-methyl)phenyl)-1H-indazol-1-yl)-pyrrolidin-1-yl)prop-2-en-1-one]	20
C=CC(=O)N1CCC(n2nc(-c3ccc(C(F)(F)F)cc3)c3cccc(C)c32)C1 (stereo not shown) [Compound 39, 1-(3-(7-methyl-3-(4-(trifluoro-methyl)phenyl)-1H-indazol-1-yl)pyrrolidin-1-yl)prop-2-en-1-one]	14
C=C(F)C(=O)N1CC(n2nc(-c3ccc(C(F)(F)F)cc3)c3c2CCCC3)C1 [Compound 217, 2-fluoro-1-(3-(3-(4-(trifluoro-methyl)phenyl)-4,5,6,7-tetra-hydro-1H-indazol-1-yl)azetidin-1-yl)prop-2-en-1-one]	5.7
C=CC(=O)N1CCC(n2nc(-c3ccc(C(F)(F)F)cc3)c3cccc(C(=O)N4CCC(F)(F)C4)c32)C1 (stereo not shown) [Compound 112, 1-(3-(7-(3,3-difluoropyrrolidine-1-carbonyl)-3-(4-(trifluoro-methyl)phenyl)-1H-indazol-1-yl)-pyrrolidin-1-yl)prop-2-en-1-one]	86

Reference: patent US20230391779A1, “BICYCLIC COMPOUNDS, COMPOSITIONS AND USE THEREOF” (Betta Pharmaceuticals Co., Ltd., priority 2020, published 2023)
